Experimental data reported in the supplement of paper PMC10307832.

Legend:
Test in all cases: relative viability (nuclei count vs DMSO), 5 days (fraction); higher = more cells survive
[1] = compound: C1=CC2=NC=CN=C2C=C1/C=C/3\C(=O)NC(=O)S3 + CC(C)C[C@H](NC(=O)[C@H](Cc1ccccc1)NC(=O)c1cnccn1)B(O)O [Bortezomib] (partner 0.002 µM)
In short: (§1)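 Lung cancer cell lines in 1536-well plates were dosed by pin tool the day after seeding, either with one drug alone or with a fixed anchor-drug dose plus five library-drug doses (not always all listed) in √10 steps. After 5 days, cells were fixed and their nuclei stained in one step (final 0.05% Triton X-100, 1% formaldehyde, 1 ug/ml Hoechst), then counted on 4× images. Relative viability is the nuclei count in treated wells divided by that in vehicle wells. Values are medians of duplicate plates.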

[2] = compound: C1=CC2=NC=CN=C2C=C1/C=C/3\C(=O)NC(=O)S3 + Cc1nc(Nc2ncc(C(=O)Nc3c(C)cccc3Cl)s2)cc(N2CCN(CCO)CC2)n1 [Dasatinib] (partner 0.075 µM)
In short: as §1

BGJ398 + Trametinib = compound: CCN1CCN(c2ccc(Nc3cc(N(C)C(=O)Nc4c(Cl)c(OC)cc(OC)c4Cl)ncn3)cc2)CC1 [BGJ398] + CC(=O)Nc1cccc(-n2c(=O)n(C3CC3)c(=O)c3c(Nc4ccc(I)cc4F)n(C)c(=O)c(C)c32)c1 [Trametinib] (partner 0.02 µM)
In short: as §1

BGJ398 + Foretinib = compound: CCN1CCN(c2ccc(Nc3cc(N(C)C(=O)Nc4c(Cl)c(OC)cc(OC)c4Cl)ncn3)cc2)CC1 [BGJ398] + COc1cc2c(Oc3ccc(NC(=O)C4(C(=O)Nc5ccc(F)cc5)CC4)cc3F)ccnc2cc1OCCCN1CCOCC1 [Foretinib] (partner 0.25 µM)
In short: as §1

Cell Line	relative viability ([1]; first compound 0.02 µM)	relative viability ([1]; first compound 0.06325 µM)	relative viability ([1]; first compound 0.2 µM)	relative viability ([1]; first compound 0.6325 µM)	relative viability ([1]; first compound 2 µM)	relative viability ([2]; first compound 0.02 µM)	relative viability ([2]; first compound 0.06325 µM)	relative viability ([2]; first compound 0.2 µM)	relative viability ([2]; first compound 0.6325 µM)	relative viability ([2]; first compound 2 µM)	relative viability (BGJ398 + Trametinib; first compound 0.01 µM)	relative viability (BGJ398 + Trametinib; first compound 0.03162 µM)	relative viability (BGJ398 + Trametinib; first compound 0.1 µM)	relative viability (BGJ398 + Trametinib; first compound 0.3162 µM)	relative viability (BGJ398 + Trametinib; first compound 1 µM)	relative viability (BGJ398 + Foretinib; first compound 0.01 µM)	relative viability (BGJ398 + Foretinib; first compound 0.03162 µM)	relative viability (BGJ398 + Foretinib; first compound 0.1 µM)	relative viability (BGJ398 + Foretinib; first compound 0.3162 µM)	relative viability (BGJ398 + Foretinib; first compound 1 µM)
NCI-H838	0.711	0.908	0.878	0.595	0.684	0.278	0.179	0.311	0.257	0.187	0.41	0.537	0.51	0.403	0.382	0.927	1.08	0.962	0.889	0.914
NCI-H1755	0.927	1.05	0.961	0.917	0.859	0.43	0.371	0.448	0.355	0.257	0.723	0.751	0.725	0.638	0.554	0.88	0.985	0.919	0.929	0.955
HCC-78	0.497	0.378	0.588	0.346	0.275	0.381	0.705	0.517	0.392	0.184	0.55	0.868	0.858	0.696	0.619	0.563	0.597	0.504	0.614	0.549
IA-LM	0.654	0.918	0.865	0.788	0.728											1.2	1.08	1.42	1.15	1.14
NCI-H322M	1.18	1.1	1.26	1.19	0.973	0.274	0.27	0.269	0.239	0.238	0.587	0.465	0.511	0.435	0.507	1.03	0.896	1.07	0.966	0.958
NCI-H3122	1.02	1.01	1	1.08	0.975	0.8	0.953	0.747	0.816	0.701	0.204	0.223	0.245	0.19	0.264	1.01	0.973	0.963	0.89	0.971
COR-L23	0.906	0.947	0.972	0.95	0.941	0.446	0.481	0.395	0.477	0.344	0.512	0.64	0.63	0.486	0.68	0.955	1.09	1.04	0.865	1.14
NCI-H1793						0.407	0.39	0.368	0.354	0.328	0.442	0.311	0.273	0.305	0.312	0.725	0.579	0.557	0.725	0.666
NCI-H1792	0.863	0.734	0.928	0.952	0.688	0.763	0.653	0.807	0.818	0.311	0.359	0.361	0.342	0.215	0.17					
NCI-H522						0.899	1.06	0.942	1.09	0.714	0.743	0.797	0.709	0.644	0.736					
NCI-H1299	1.04	1.04	1.04	1.03	1.06											1.09	1.06	1.09	1.15	1.03
NCI-H1648											0.411		0.474	0.393	0.417					
SK-MES-1						0.456	0.267	0.375	0.339	0.211	0.525	0.591	0.534	0.574	0.63	0.869	1.08	0.971	0.809	1.12
NCI-H2342						0.305	0.315	0.334	0.309	0.283	1.04	0.906	0.893	1.03	0.978	1.05	0.98	1.08	1.07	1.1
SW 900						0.499	0.788	0.625	0.883	0.486	0.723	0.679	0.655	0.735	0.568	0.856	0.823	0.895	0.737	0.668
LK-2						0.291	0.349	0.306	0.297	0.189	0.788	0.726	0.561	0.32	0.268	1.28	0.947	0.897	0.618	0.309
NCI-H1395						0.44	0.386	0.417	0.417	0.354	0.986	0.963	0.666	0.555	0.587	0.877	0.955	0.819	0.756	0.614
A549																0.919	0.939	0.97	0.944	1.09
NCI-H2170						0.495	0.611	0.508	0.48	0.597	0.941	0.937	1.02	0.91	0.866	1.02	1.04	1.06	0.977	1.04
NCI-H1563	0.828	0.788	0.871	0.753	0.715	0.477	0.435	0.523	0.486	0.316						0.924	0.931	0.946	0.814	0.752
ABC-1	0.3	0.263	0.328	0.261	0.27	0.507	0.757	0.488	0.611	0.538						0.962	1.19	1.05	1.26	0.973
